Results from US20230292750A1, “INSECT REPELLENT PATCHES AND TUBULAR ARTICLES” (ACHIEVE EQUINE LLC, priority 2020, published 2023).

What was measured:
[1] = Adhesion Test (reservoir layer to support film); type: physicochemical; design: key: A positive (+) result for adhesion indicates the carrier cohesively failed with transfer of polymer carrier material of the reservoir layer to the support film; conditions: Camie SBR carrier (CAMIE 390B); repellent 2% in dry carrier, coated on PET tape
Description: Samples of 0.75 inch (19 mm) diameter were coated in circular molds onto the PET tape to a dry thickness of approximately 0.020 inch (0.51 mm). The insect repellent was formulated at 2% within the dry carrier. Subsequent to coating, the samples were first allowed to air dry at room temperature for approximately 1 hour, then placed in a heated air convection oven at approximately […] for several hours. Upon removal, samples sat overnight before evaluation. A sharpened to a point like a flat wooden dowel (approximately 3 mm diameter) was used to separate the reservoir layer/support film coating interface. The sharpened end of the wooden dowel was applied under hand pressure at the interface in an attempt to separate the reservoir layer from the support film. A positive (+) result for adhesion indicates the carrier cohesively failed with transfer of polymer carrier material of the reservoir layer to the support film.

[2] = Tack Test (wooden dowel probe on reservoir layer); type: physicochemical; design: key: A positive (+) result for tack indicates there was no transfer of the carrier polymer of the reservoir layer to the probe (adhesive failure); conditions: repellent 2% in dry carrier, coated on PET tape
Description: Samples of 0.75 inch (19 mm) diameter were coated in circular molds onto the PET tape to a dry thickness of approximately 0.020 inch (0.51 mm). The insect repellent was formulated at 2% within the dry carrier. Subsequent to coating, the samples were first allowed to air dry at room temperature for approximately 1 hour, then placed in a heated air convection oven at approximately […] for several hours. Upon removal, samples sat overnight before evaluation. As a measure of tack, the surface of the coated formulation was probed with the flat end of a wooden dowel The wooden dowel was applied under hand pressure to the surface of the reservoir layer for 1 second long in contact. A positive (+) result for tack indicates there was no transfer of the carrier polymer of the reservoir layer to the probe (adhesive failure).

[3] = Bostik EVA carrier (comparative)

| Compound | adhesion [1] | tack [2, 3] | tack ([2]; Camie SBR carrier (CAMIE 390B)) |
| --- | --- | --- | --- |
| CCN(CC)C(=O)c1cccc(C)c1 [Deet, N,N-diethyl-meta-toluamide] | + + | + | + + |
| CC(C)=CCC/C(C)=C/CO [Geraniol] | + + | + | + + |
